Assay results from article PMC6804135, “Comparative Study of Aryl O-, C-, and S-Mannopyranosides as Potential Adhesion Inhibitors toward Uropathogenic E. coli FimH” (Molecules, 2019).
Like-named read-outs stand apart in the source and are kept apart here.

Legend:
E. coli FimH [1] = molecular target: T1, E. coli FimH (Escherichia coli, UniProt Q1R2J4); experiment: SPR kinetic analysis of FimH against immobilized 6-aminohexyl α-D-mannopyranoside (4); format: binding; set-up: The FimH residues 1-158 were isolated from the E. coli strain UTI89; made in house; conditions: for Kd: KD = koff/kon
Method: First, the equilibrium dissociation constant (KD) of FimH against immobilized 6-aminohexyl α-D-mannopyranoside (4) was determined. The ligand 6-aminohexyl α-D-mannopyranoside (10 mM in H2O) was immobilized via standard amine carbodiimide coupling chemistry (and blocking with ethanolamine as per the manufacturer’s procedure) to obtain 364 response units (RU) (see sensorgram in SI). The reference channel was treated similarly without ligand. A concentration series of the analyte FimH (1024 to 8 nM in running buffer, 2-fold dilutions) was then injected over the surface (700 s association time; 1200 s dissociation time; 30 μL/min flow rate; 25 °C temperature; running buffer: PBS pH 7.45, 3 mM EDTA supplemented with 0.005% Tween-20; regeneration: 30 s of 10 mM Glycine pH 1.5) and the response was double-referenced by subtracting the reference channel and the response with no FimH (running buffer only). Since equilibrium could not be reached during injection, KD was obtained from the extracted kinetic rate constants (KD = koff / kon) from a non-linear globally fitted 1:1 Langmuir binding isotherm containing a mass transfer constant (tc) and locally fitted refractive index constant (RI) (Biacore T200 evaluation software v1.0, GE Healthcare Life Sciences) of the obtained sensorgrams.

E. coli FimH [2] = molecular target: T1, E. coli FimH; set-up: The FimH residues 1-158 were isolated from the E. coli strain UTI89; made in house; conditions: read-out: Kd (SPR), cited from earlier work
E. coli FimH [3] = molecular target: T1, E. coli FimH; experiment: SPR solution affinity (competition) of ligands for FimH on immobilized 6-aminohexyl α-D-mannopyranoside; format: binding; set-up: The FimH residues 1-158 were isolated from the E. coli strain UTI89; made in house; conditions: for Relative Potency: relative to MeαMan (1) = 1; for ΔG°: from SPR Kd
Text: To this end, we first immobilized 6-aminohexyl α-D-mannopyranoside (4) on the CM5 gold chip using the conventional carbodiimide method to which we allowed FimH to bind with and without our competitive inhibitors (see sensorgram of 4 in the SI). The equilibrium dissociation constant (Kd) of the interaction was then normalized, the data sets are illustrated in Figure 5 and values given in Table 1 (see experimental details). This modification from the previous protocol using 8-aminooctyl α-D-mannoside was found much more practical and reliable given its very high affinity to FimH which made the gold chip regeneration from sample to sample too complicated (very slow koff).
SPR Solution Affinity of Ligands for the E. coli FimH Adhesin
Second, the equilibrium dissociation constants (KD) of FimH against the compounds of interest were determined by measuring the amount of free FimH in a series of concentrations of the compounds of interest at a constant concentration of FimH (close to the Kd of FimH: 6-aminohexyl α-D-mannopyranoside) after equilibrium in solution. A concentration series of the ligand of interest (65536 to 0.5 nM in running buffer, 2-fold dilutions) was equilibrated overnight with analyte FimH (40 nM) and then injected over the previous ligand 6-aminohexyl α-D-mannopyranoside-immobilized surface (300 s association time; 300 s dissociation time; 30 μL/min flow rate; 25 °C temperature; running buffer: 5% DMSO, PBS pH 7.45, 3 mM EDTA supplemented with 0.05% Tween-20; regeneration: 30 s of 10 mM Glycine pH 1.5) and the response was single-referenced by subtracting the reference channel and solvent corrected with a DMSO calibration curve. Since equilibrium could not be reached during injection, the responses (free [FimH], Y-axis) at the end of the injections were normalized with the response from FimH only ([compound of interest] = 0) and then plotted over the compounds of interest concentrations (X-axis).

E. coli FimH [4] = molecular target: T1, E. coli FimH; experiment: Previously reported SPR Kd against FimH; format: binding; set-up: The FimH residues 1-158 were isolated from the E. coli strain UTI89; made in house; conditions: 5 versus 7; from Kd values of ref 18
E. coli FimH [5] = molecular target: T1, E. coli FimH; set-up: The FimH residues 1-158 were isolated from the E. coli strain UTI89; made in house; conditions: read-out: IC50 (SPR); cited from earlier work
E. coli FimH [6] = molecular target: T1, E. coli FimH; conditions: from IC50 values of ref 20

| Structure (SMILES) | Kd (E. coli FimH [3]) | Relative Potency (E. coli FimH [3]) | ΔG° (E. coli FimH [3]) | also measured |
| --- | --- | --- | --- | --- |
| NCCCCCCO[C@H]1O[C@H](CO)[C@@H](O)[C@H](O)[C@@H]1O [Compound 4, 6-aminohexyl α-D-mannopyranoside] | – | – | – | Kd (E. coli FimH [1]; KD, fitted constant): 38.6 nM; Kd (E. coli FimH [1]; Kd, immobilized ligand 4, FimH as analyte, 25 °C, PBS pH 7.45): 38.58 ± 0.11 nM; dissociation rate constant (koff) (E. coli FimH [1]; fitted constant (dissociation rate), 1:1 Langmuir with mass transfer): 2,06E-04 1/s; kon (E. coli FimH [1]; read-out: ka): 5340 M⁻¹ s⁻¹; Relative Potency (E. coli FimH [1]; relative to MeαMan (1) = 1, immobilized ligand 4): 12 |
| OCC1OC(OCC=Cc2ccc(-c3ccccc3)cc2)C(O)C(O)C1O (stereo not shown) [Compound 5] | 19.9 ± 1.22 nM | 24 | – | Kd (E. coli FimH [2]): 3 nM; fold better Kd than 7 (E. coli FimH [4]): 135 fold |
| OCC1OC(CC=Cc2ccc(-c3ccccc3)cc2)C(O)C(O)C1O (stereo not shown) [Compound 6] | 11.4 ± 0.63 nM | 42 | – | – |
| OC[C@H]1O[C@H](OCC#Cc2ccc(-c3ccccc3)cc2)[C@@H](O)[C@@H](O)[C@@H]1O [Compound 7] | – | – | – | Kd (E. coli FimH [2]): 405 nM |
| OCC1OC(SCC=Cc2ccc(-c3ccccc3)cc2)C(O)C(O)C1O [Compound 12, (2E)-3-(1,1’-biphenyl-2-propen-1-yl) 1-thio-α-D-mannopyranoside] | 94.4 ± 6.2 nM | 5 | – | difference in respective Kds between 5 and 12 (E. coli FimH [3]; O-linked 5 versus S-linked 12): about 5 fold |
| CCCCCCCO[C@H]1O[C@H](CO)[C@@H](O)[C@H](O)[C@@H]1O [HeptylαMan (3), Heptyl α-D-mannopyranoside] | 2.37 ± 0.5 nM | 200 | -11.76 kcal/mol | Kd (E. coli FimH [2]; reported value for the golden standard): 5 nM; IC50 (E. coli FimH [5]): 160 nM |
| CO[C@H]1O[C@H](CO)[C@@H](O)[C@H](O)[C@@H]1O [MeαMan (1), Methyl α-D-mannopyranoside] | 475 ± 5.7 nM | 1 | -8.62 kcal/mol | – |
| O=[N+]([O-])c1ccc(O[C@H]2O[C@H](CO)[C@@H](O)[C@H](O)[C@@H]2O)cc1 [PNPαMan (2), para-nitrophenyl α-D-mannopyranoside] | 4.21 ± 0.72 nM | 113 | -11.42 kcal/mol | – |
| CCCCCCCS[C@H]1O[C@H](CO)[C@@H](O)[C@H](O)[C@@H]1O [S-linked heptyl α-D-mannopyranoside] | – | – | – | difference between O- and S-linked heptyl α-D-mannopyranosides (E. coli FimH [6]): 3.4 fold; IC50 (E. coli FimH [5]): 547 nM |
